“And” between values parts separate entries of the source, which are not always exact repeats. Identical values can stand only once.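 Five compound concentrations were applied to cells in 96-well plates for 48 hours; endpoints were derived by simple linear interpolation of the resulting dose-response curve. GI50: concentration for 50% inhibition of growth. TGI marks complete inhibition of growth.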
Tests used:
Experiment in all cases: NCI-60 cell line screen, 48 h
CAKI-1 renal = test system: CAKI-1 renal
EKVX NSCLC = test system: EKVX NSCLC
HOP-62 NSCLC = test system: HOP-62 NSCLC
LXFL 529 NSCLC = test system: LXFL 529 NSCLC
OVCAR-4 ovarian = test system: OVCAR-4 ovarian
SR leukemia = test system: SR leukemia
SW-620 colon = test system: SW-620 colon
UO-31 renal = test system: UO-31 renal
SNB-78 CNS = test system: SNB-78 CNS
PC-3 prostate = test system: PC-3 prostate

Structure (SMILES) | TGI (CAKI-1 renal) | TGI (EKVX NSCLC) | TGI (HOP-62 NSCLC) | TGI (LXFL 529 NSCLC) [µM] | TGI (OVCAR-4 ovarian) | TGI (SR leukemia) | TGI (SW-620 colon) | TGI (UO-31 renal) | TGI (SNB-78 CNS) [µM] | GI50 (EKVX NSCLC) | GI50 (PC-3 prostate) | TGI (PC-3 prostate) | GI50 (SR leukemia) | GI50 (CAKI-1 renal) | GI50 (HOP-62 NSCLC) | GI50 (OVCAR-4 ovarian) | GI50 (SW-620 colon) | GI50 (UO-31 renal)
COc1cc(C2c3cc4c(cc3[C@@H](N(C)C)[C@H]3COC(=O)C23)OCO4)cc(OC)c1O (some centres undefined) | 99 µM | > 100 µM | > 100 µM | > 100 | > 100 µM | > 100 µM | > 100 µM | > 100 µM |  |  |  |  |  |  |  |  |  | 
COc1ccccc1NC(=O)C1=C(C)NC(C)=C(C(=O)Nc2ccccc2OC)C1c1ccc(N(C)C)cc1 | 89.1 µM | > 100 µM | 57.2 µM | > 100 | 91.2 µM |  | > 100 µM | > 100 µM | 81.1 |  |  |  |  |  |  |  |  | 
COC(=O)c1ccc(C(=O)OC)c2nc3cc(C)ccc3nc12 | > 100 µM | > 100 µM | > 100 µM | > 100 | > 100 µM |  | > 100 µM | > 100 µM | > 100 |  |  |  |  |  |  |  |  | 
CN1C(=O)C2C=CC1C1CCC2N(C)C1=O (centres undefined) | > 100 µM | > 100 µM |  | > 100 | > 100 µM |  | > 100 µM | > 100 µM | > 100 |  |  |  |  |  |  |  |  | 
CC(/C=C/NNC1=NC(c2ccccc2)C(c2ccccc2)=NN1)Sc1ccccc1N (centres undefined) | 28 µM | 32.8 µM | 33.7 µM | 15.5 | 20 µM | 21 µM | 7.75 µM | 20.1 µM | 67.9 |  |  |  |  |  |  |  |  | 
C/C(=N\NC(=S)N1CCN(c2ccccn2)CC1)c1nccs1 | 19.9 µM | 10.6 µM | 16.8 µM | 22 | 22.5 µM | 4.63 µM | 20.2 µM | 14 µM | 71.4 | 0.0334 µM | 0.525 µM | 17.4 µM | 0.236 µM |  |  |  |  | 
NC(=O)c1csc(C2CCC(CO)O2)n1 (centres undefined) | > 100 µM | > 100 µM | > 100 µM | > 100 | > 100 µM |  | > 100 µM | > 100 µM | > 100 |  |  |  |  |  |  |  |  | 
S=P(N1CCCC1)(N1CC1)N1CC1 | > 100 µM | > 100 µM | > 100 µM |  | > 100 µM | > 100 µM | > 100 µM | > 100 µM | > 100 |  |  |  |  |  |  |  |  | 
Cc1cccc(N=C2NC(=O)C(CC(=O)Nc3ccc(C)cc3C)S2)c1 (centres undefined) | > 100 µM | > 100 µM |  | > 100 | > 100 µM | > 100 µM | > 100 µM | > 100 µM | > 100 |  |  |  |  |  |  |  |  | 
O=c1cc(-c2ccccn2)[nH]c2cc(F)ccc12 |  | > 100 µM | > 100 µM | > 100 | > 100 µM | > 100 µM | > 100 µM | > 100 µM | > 100 |  |  |  |  |  |  |  |  | 
CC1(O)CCC2(C)C(=O)C1(C)CCC21OCCO1 (centres undefined) |  | > 100 µM |  | > 100 |  | > 100 µM | > 100 µM | > 100 µM |  |  |  |  |  |  |  |  |  | 
COC(=O)[C@H]1N[C@@H](C(=O)OC)C23CCC[C@H]2CC[C@]1(C(OC)OC)C3 | > 100 µM | > 100 µM | > 100 µM | > 100 | > 100 µM |  | > 100 µM | > 100 µM | > 100 |  |  |  |  |  |  |  |  | 
Cc1c(C(=O)CC(=O)C(=O)Nc2cc(Cl)ccc2Cl)[n+](=O)c2ccccc2n1[O-] | > 100 µM | > 100 µM | > 100 µM | > 100 | > 100 µM | 63.6 µM | > 100 µM | > 100 µM | > 100 |  |  |  |  |  |  |  |  | 
C[C@]12CC[C@@H](OC(=O)N(CCCl)N=O)C[C@@H]1CC[C@@H]1[C@@H]2CC[C@]2(C)C(=O)CC[C@@H]12 | 20.7 µM | > 43.7 µM | 27 µM |  | 53.4 µM | 6.82 µM | 22.6 µM | 18.1 µM |  | 6.5 µM | 11.5 µM | > 96 µM | 0.0156 µM | 1.67 µM | 5.48 µM | 14.9 µM | 7.67 µM | 4.22 µM
CC1=NOC(=O)C1N=Nc1ccc(Br)c(C)c1 (centres undefined) | 30.8 µM | 32 µM | 48.4 µM | 29.1 | 29.3 µM |  | 34.7 µM |  | 62.8 |  |  |  |  |  |  |  |  | 
Oc1c(Cl)cc(Cl)cc1Sc1cc(Cl)cc(Cl)c1O | 9.13 µM and 5.93 µM | 14.1 µM and 9.1 µM | 14.9 µM and 5.66 µM |  | 14.3 µM and 11.7 µM | 13.6 µM and > 100 µM | 13.2 µM and 12.5 µM | 11.6 µM and 9.32 µM |  | 3.8 µM and 2.51 µM | 3.21 µM and 2.89 µM | 10.5 µM and 12.9 µM | 3.09 µM and 4.96 µM | 2.65 µM and 2.04 µM | 3.37 µM and 2.17 µM | 3.97 µM and 3.2 µM | 3.32 µM and 3.06 µM | 2.46 µM and 2.02 µM
Nc1ccc(C(=O)CC2(O)C(=O)Nc3c(Cl)cc(Cl)cc32)cc1 (centres undefined) |  | > 100 µM | > 100 µM | > 100 | > 100 µM |  | 65.4 µM | > 100 µM |  |  |  |  |  |  |  |  |  | 
COC(=O)C(CC(=O)c1c[nH]c2ccccc12)c1c[nH]c2ccccc12 (centres undefined) | 70.8 µM | 74.1 µM | 54.8 µM |  | 40.2 µM |  | 57.2 µM | 39.3 µM | 58.2 |  |  |  |  |  |  |  |  | 
